Data on five sequences can be found in patent publication US20120294879A1, “CONSENSUS SEQUENCE FOR INFLUENZA A VIRUS” (priority 2009, published 2012).

Entries after “also recorded” stand apart in the source; their conditions may differ. Read-outs that look alike come from different tables or passages of the source.

Experiment [1] relates to splenocytes of HLA-DR4 (DRB1*0401) transgenic mice. The format is cell-based. On the set-up: key: — represents no positive ELISpot response.
Experiment [2] deals with HLA-A2, -A24, -B7, -DR2, -DR3 and -DR4 transgenic mice. The experiment is classed as cell-based.
Experiment [3] has as its system splenocytes of HLA-DR3 (DRB1*0301) transgenic mice. The format is cell-based. On the set-up: key to DR3: average IFN-γ spots forming cells per million splenocytes: — represents no positive ELISpot response.
The test system of experiment [4] is splenocytes of HLA-DR2 (DRB1*1501) transgenic mice. The format is cell-based. On the set-up: key to DR2: average IFN-γ spots forming cells per million splenocytes: — represents no positive ELISpot response.
Experiment [5] deals with splenocytes of HLA-B7 (B*0702) transgenic mice. The format is cell-based. On the set-up: key to B7: average IFN-γ spots forming cells per million splenocytes: — represents no positive ELISpot response.
The subject of experiment [6] is splenocytes of HLA-A24 (A*2402) transgenic mice. The experiment is classed as cell-based. On the set-up: key to A24: average IFN-γ spots forming cells per million splenocytes: — represents no positive ELISpot response.
A further experiment has as its system HLA alleles. The conditions noted are these: epitopes extracted from the IEDB, humans infected with influenza A, cited from earlier work.

Turning to ERRNKYLEEHPSAGKDP, the “DR4: average IFN-γ spots forming cells per million splenocytes” value (from here on “DR4 … per million splenocytes”) in experiment [1] is recorded as 121 ± 1(0.1) IFN-γ spots forming cells per million splenocytes. Moreover, the “HLA allele this work (HLA restriction by ELISpot)” value (“HLA allele this work” below) in experiment [2] is “DR4”. Further, the “DR3: average IFN-γ spots forming cells per million splenocytes” value (from here on “DR3 … per million splenocytes”) in experiment [3] is reported as “—”. Also, the “DR2: average IFN-γ spots forming cells per million splenocytes” value (“DR2 … per million splenocytes” below) in experiment [4] was “—”. For the same sequence, in experiment [5], the “B7: average IFN-γ spots forming cells per million splenocytes” value is given as “—”. For the same sequence, the “A24: average IFN-γ spots forming cells per million splenocytes” value in experiment [6] is on record as “—”. The “Published HLA alleles (reported human T cell epitopes)” value (shortened to “Published HLA alleles”) with HLA alleles is “DR1, DRB1*0101”.

In the case of HENRMVLASTTAKAMEQ, the “DR4 … per million splenocytes” value in experiment [1] is on record as 165 ± 1(0.1) IFN-γ spots forming cells per million splenocytes. The “HLA allele this work” value in experiment [2] is listed as “DR4”. The “DR3 … per million splenocytes” value in experiment [3] was “—”. In addition, the “DR2 … per million splenocytes” value in experiment [4] was “—”. For the same sequence, in experiment [5], the “B7: average IFN-γ spots forming cells per million splenocytes” value is reported as “—”. The “A24: average IFN-γ spots forming cells per million splenocytes” value in experiment [6] is “—”. Moreover, in the experiment with HLA alleles, the “Published HLA alleles” value is given as “A3, A11, DRB1*0701”.

Take SAGQISTQPTFSVQRNL: the “DR4 … per million splenocytes” value in experiment [1] is listed as “—”. In addition, in experiment [2], the “HLA allele this work” value is “DR2”. In addition, in experiment [3], the “DR3 … per million splenocytes” value was “—”. Also, in experiment [4], the “DR2 … per million splenocytes” value is listed as 207 ± 3(0.1) IFN-γ spots forming cells per million splenocytes and the “DR2: lowest concentration of peptide giving positive ELISpot response in peptide titration” value is listed as 207 ± 3(0.1) μg/ml. For the same sequence, the “B7: average IFN-γ spots forming cells per million splenocytes” value in experiment [5] is given as “—”. Besides, in experiment [6], the “A24: average IFN-γ spots forming cells per million splenocytes” value is given as “—”. Further, the “Published HLA alleles” value in the experiment with HLA alleles (listed as NP 402-418) is recorded as “DRB1*0101,; also recorded: DRB1*0404”.

Regarding TNPLIRHENRMVLASTT, the “DR4 … per million splenocytes” value in experiment [1] is “—”. The “HLA allele this work” value in experiment [2] is recorded as “DR2, DR3”. Further, in experiment [3], the “DR3 … per million splenocytes” value is given as 120 ± 4(0.1) IFN-γ spots forming cells per million splenocytes and the “DR3: lowest concentration of peptide giving positive ELISpot response in peptide titration” value was 120 ± 4(0.1) μg/ml. In experiment [4], the “DR2 … per million splenocytes” value was 56 ± 5(0.1) IFN-γ spots forming cells per million splenocytes and the “DR2: lowest concentration of peptide giving positive ELISpot response in peptide titration” value was 56 ± 5(0.1) μg/ml. In addition, in experiment [5], the “B7: average IFN-γ spots forming cells per million splenocytes” value is recorded as “—”. In experiment [6], the “A24: average IFN-γ spots forming cells per million splenocytes” value is reported as “—”. Besides, in the experiment on HLA alleles (listed as M1 169-185), the “Published HLA alleles” value was “B39, DR2, DRB1*0103,; also recorded: DRB1*1101,; also recorded: DRB1*0701, DRB5*0101”.

With VLYDKEEIRRIWRQANN, in experiment [1], the “DR4 … per million splenocytes” value was “—”. In addition, in experiment [2], the “HLA allele this work” value is listed as “DR3”. In experiment [3], the “DR3 … per million splenocytes” value is given as 501 ± 42(0.1) IFN-γ spots forming cells per million splenocytes and the “DR3: lowest concentration of peptide giving positive ELISpot response in peptide titration” value was 501 ± 42(0.1) μg/ml. Moreover, the “DR2 … per million splenocytes” value in experiment [4] is listed as “—”. Further, the “B7: average IFN-γ spots forming cells per million splenocytes” value in experiment [5] was “—”. For the same sequence, the “A24: average IFN-γ spots forming cells per million splenocytes” value in experiment [6] was “—”. For the same sequence, the “Published HLA alleles” value with HLA alleles is “DRB1*1101”.
